Test system: ECs (HUVECs)
Assay: FACS binding of FITC-labeled synthetic peptides to ECs
Design: species or system human
Details: 6 μg FITC labeled peptide, 10^5 ECs, 2 hours
Experimental: Fluorescein labeling of synthetic peptides—Fluorescein Isothiocyanate (FTIC, Pierce, Rockford, Ill.) is an amino-reactive probe that reacts in an alkine environment with primary amines to form a stable fluorescent derivative. 12.5 μl of FITC (10 mg/ml) were added per 1 mg of peptide diluted in 0.5 M bicarbonate buffer (pH 9.5) and agitated in the dark for 2 hours. 0.1 ml of 1.5 M hydroxilamine was then added per 1 ml of reaction mixture and agitated for an additional 30 minutes at room temperature. Unbound FITC was removed by dialysis in the presence of PBS.
Peptide binding to ECs—ECs were cultured in M199 supplemented with 10% FCS. For peptide binding assays, the cells were trypsinized and 10^5 cells were suspended in PBS supplemented with 5% FCS and 0.1% sodium azide. Cells were incubated for 2 hours (on ice, in the dark) in the presence of 1-6 μg of FITC-labeled peptides, following which the stained cells were washed twice with PBS. Samples were analyzed by FACS (FACScan, Becton Dickinson, San Jose, Calif., USA). For control, 0.5×10^6 of PBLs were utilized.
FACS analysis of peptide binding to ECs with and without hypoxia treatment—ECs were exposed to hypoxia conditions and then prepared for FACS analysis as described in Example 3, hereinabove. […] Samples were analyzed by Fluorescence Activated Cell Sorter (FACScan Beckton Dickinson, Calif., USA).

Sequence | Binding to ECs exposed to hypoxia compared with normoxia
LLADTTHHRPWT (Phage displayed peptide) [LT] | increased binding
SAHGTSTGVPWP (Phage displayed peptide) | increased binding

From patent US7473682B2, “Angiogenic peptides and uses thereof” (Ramot at Tel Aviv University Ltd., priority 2003, dated 2009)
